Results as given in US8039465B2, “Cytoskeletal active compounds, composition and use” (priority 2005, dated 2011).

How the values were obtained:
non-muscle actin = assay: Actin Polymerization Inhibition Assay (Actin Polymerization Biochem Kit, pyrene actin fluorescence); type: biochemical; details: inhibition of actin polymerization (pyrene-labeled actin fluorescence increase) at standard test concentration of 10 uM
Protocol: The quantative effects of the test compounds on the kinetics of actin polymerization were determined using a non-muscle actin polymerization kit, Actin Polymerization Biochem Kit, according to the instructions of the manufacturer (Cytoskeleton Inc; Denver, Colo.). This assay evaluates the fluorescence intensity of pyrene actin, which is greater for polymeric actin than for monomeric actin. The ability of the test compounds to inhibit actin assembly was determined by measuring their ability to inhibit this increase in the fluorescence intensity of the pyrene-labeled actin. Results were expressed as the percent inhibition measured at a standard test concentration of 10 uM.

NIH/3T3 cells = assay: NIH/3T3 Cell Morphology Assay (phalloidin staining, degree of actin disruption); type: cell-based; details: 30 minutes at 37° C., 10 nM to 100 uM tested, TRITC-phalloidin imaging
Protocol: NIH/3T3 cells were grown in DMEM-H containing glutamine and 10% Colorado Calf Serum. Cells were passaged regularly prior to reaching confluence. Eighteen to 24 hours prior to experimentation, the cells were plated onto Poly-L-Lysine-coated glass coverslips. On the day of experimentation, the cell culture medium was removed and was replaced with medium containing from 10 nM to 100 uM of the test compound, and the cells were incubated for 30 minutes at 37° C. The culture medium was then removed and the cells were washed with warmed PBS and fixed for 10 minutes with warmed 4% paraformaldehyde. The cells were permeabilized with 0.5% Triton-X, stained with TRITC-conjugated phalloidin and imaged using a Nikon Eclipse E600 epifluorescent microscope to determine the degree of actin disruption. Results were expressed as the concentration at which complete disruption of the actin cytoskeleton was observed.

## C=CCCC[C@@H]1C[C@@H](OC(=O)/C=C(/C)CCC=C)C[C@](O)([C@@H]2CSC(=O)N2)O1 [Compound 1, (Z)-((2R,4R,6R)-2-Hydroxy-2-((R)-2-oxothiazolidin-4-yl)-6-(pent-4-enyl)-tetrahydro-2H-pyran-4-yl) 3-Methylhepta-2,6-dienoate]
non-muscle actin
  Percent inhibition at 10 uM: 52.3%

## C=CCCC[C@@H]1C[C@@H](NC(=O)/C=C(/C)CCC=C)C[C@](O)([C@@H]2CSC(=O)N2)O1 [Compound 1a, (Z)-N-((2R,4R,6R)-2-Hydroxy-2-((R)-2-oxothiazolidin-4-yl)-6-(pent-4-enyl)-tetrahydro-2H-pyran-4-yl)-3-methylhepta-2,6-dienamide]
non-muscle actin
  Percent inhibition at 10 uM: 32.4%

## C=CCCC[C@@H]1C[C@@H](OC(=O)c2ccccc2)C[C@](O)([C@@H]2CSC(=O)N2)O1 [Compound 4, (2R,4R,6R)-2-Hydroxy-2-((R)-2-oxothiazolidin-4-yl)-6-(pent-4-enyl)-tetrahydro-2H-pyran-4-yl Benzoate]
non-muscle actin
  Percent inhibition at 10 uM: 52.0%

## C=CCCC[C@@H]1C[C@@H](OC(=O)c2ccc(OC)cc2)C[C@](O)([C@@H]2CSC(=O)N2)O1 [Compound 4a, (2R,4R,6R)-2-Hydroxy-2-((R)-2-oxothiazolidin-4-yl)-6-(pent-4-enyl)-tetrahydro-2H-pyran-4-yl 4-Methoxybenzoate]
non-muscle actin
  Percent inhibition at 10 uM: 42.2%

## C=CCCC[C@@H]1C[C@@H](OC(=O)c2ccc(S(C)(=O)=O)cc2)C[C@](O)([C@@H]2CSC(=O)N2)O1 [Compound 4b, (2R,4R,6R)-2-Hydroxy-2-((R)-2-oxothiazolidin-4-yl)-6-(pent-4-enyl)-tetrahydro-2H-pyran-4-yl 4-(Methylsulfonyl)benzoate]
non-muscle actin
  Percent inhibition at 10 uM: 45.6%

## C/C1=C/C(=O)O[C@@H]2C[C@@H](CCC/C=C\CC1)O[C@@](O)([C@@H]1CSC(=O)N1)C2 [Compound 8, (R)-4-((1R,4Z,8Z,13R,15R)-15-Hydroxy-5-methyl-3-oxo-2,14-dioxa-bicyclo[11.3.1]heptadeca-4,8-dien-15-yl)thiazolidin-2-one]
non-muscle actin
  Percent inhibition at 10 uM: 69.9%
NIH/3T3 cells
  Concentration giving complete actin disruption: 5 µM

## C/C1=C/C(=O)O[C@@H]2C[C@@H](CCC/C=C/CC1)O[C@@](O)([C@@H]1CSC(=O)N1)C2 [Compound 8a, (R)-4-((1R,4Z,8E,13R,15R)-15-Hydroxy-5-methyl-3-oxo-2,14-dioxa-bicyclo[11.3.1]heptadeca-4,8-dien-15-yl)thiazolidin-2-one]
non-muscle actin
  Percent inhibition at 10 uM: 67.2%
NIH/3T3 cells
  Concentration giving complete actin disruption: 15 µM

## C/C1=C/C(=O)O[C@@H]2C[C@@H](CC[C@H](C)/C=C/CC1)O[C@@](O)([C@@H]1CSC(=O)N1)C2 [Compound 8b, (R)-4-((1R,4Z,8E,10S,13R,15R)-15-Hydroxy-5,10-dimethyl-3-oxo-2,14-dioxa-bicyclo[11.3.1]heptadeca-4,8-dien-15-yl)thiazolidin-2-one]
non-muscle actin
  Percent inhibition at 10 uM: 61.7%
NIH/3T3 cells
  Concentration giving complete actin disruption: 25 µM

## C/C1=C/C(=O)N[C@@H]2C[C@@H](CCC/C=C\CC1)O[C@@](O)([C@@H]1CSC(=O)N1)C2 [Compound 8c, (1R,4Z,8Z,13R,15R)-15-Hydroxy-5-methyl-15-((R)-2-oxothiazolidin-4-yl)-14-oxa-2-aza-bicyclo[11.3.1]heptadeca-4,8-dien-3-one]
non-muscle actin
  Percent inhibition at 10 uM: 44.9%

## C/C1=C/C(=O)O[C@@H]2C[C@@H](CCCCCCC1)O[C@@](O)([C@@H]1CSC(=O)N1)C2 [Compound 10, (R)-4-((1R,13R,15R,Z)-15-Hydroxy-5-methyl-3-oxo-2,14-dioxa-bicyclo[11.3.1]heptadec-4-en-15-yl)thiazolidin-2-one]
non-muscle actin
  Percent inhibition at 10 uM: 44.1%

## O=C1CCCC/C=C\CCC[C@@H]2C[C@H](C[C@](O)([C@@H]3CSC(=O)N3)O2)O1 [Compound 10a, (R)-4-((1R,13R,15R,Z)-15-Hydroxy-3-oxo-2,14-dioxa-bicyclo[11.3.1]heptadec-8-en-15-yl)thiazolidin-2-one]
non-muscle actin
  Percent inhibition at 10 uM: 14.0%

## O=C1CCCCCCCCC[C@@H]2C[C@H](C[C@](O)([C@@H]3CSC(=O)N3)O2)O1 [Compound 10b, (R)-4-((1R,13R,15R)-15-Hydroxy-3-oxo-2,14-dioxa-bicyclo[11.3.1]heptadecan-15-yl)thiazolidin-2-one]
non-muscle actin
  Percent inhibition at 10 uM: 21.8%

## O=C1CCCCC/C=C/CCC[C@@H]2C[C@H](C[C@](O)([C@@H]3CSC(=O)N3)O2)O1 [Compound 10c, (R)-4-((1R,14R,16R,E)-16-Hydroxy-3-oxo-2,15-dioxa-bicyclo[12.3.1]octadec-9-en-16-yl)thiazolidin-2-one]
non-muscle actin
  Percent inhibition at 10 uM: 21.7%

## O=C1CCCCCCCCCC[C@@H]2C[C@H](C[C@](O)([C@@H]3CSC(=O)N3)O2)O1 [Compound 10d, (R)-4-((1R,14R,16R)-16-Hydroxy-3-oxo-2,15-dioxa-bicyclo[12.3.1]octadecan-16-yl)thiazolidin-2-one]
non-muscle actin
  Percent inhibition at 10 uM: 10.4%
